Test results as given in patent publication US8106055B2, “Substituted amide compounds” (Gruenenthal GmbH, priority 2007, dated 2012).

Biological target: T1, serotonin (5-HT) reuptake (Rattus norvegicus, UniProt P31652)
T1 construct: synaptosomes are freshly isolated from areas of the rat brain; from tissue; host or cells: rat brain synaptosomes (P2 fraction)
Experiment: Inhibition of serotonin (5HT) reuptake in synaptosomes from rat brain
Assay type: biochemical
Details: test concentration of 10 μM
How it was run: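 Freshly isolated rat brain synaptosomes (P2 fraction) used for 5-HT reuptake. Test compound at 10 μM, activity given as % inhibition.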

T1 sequence (P31652 whole entry): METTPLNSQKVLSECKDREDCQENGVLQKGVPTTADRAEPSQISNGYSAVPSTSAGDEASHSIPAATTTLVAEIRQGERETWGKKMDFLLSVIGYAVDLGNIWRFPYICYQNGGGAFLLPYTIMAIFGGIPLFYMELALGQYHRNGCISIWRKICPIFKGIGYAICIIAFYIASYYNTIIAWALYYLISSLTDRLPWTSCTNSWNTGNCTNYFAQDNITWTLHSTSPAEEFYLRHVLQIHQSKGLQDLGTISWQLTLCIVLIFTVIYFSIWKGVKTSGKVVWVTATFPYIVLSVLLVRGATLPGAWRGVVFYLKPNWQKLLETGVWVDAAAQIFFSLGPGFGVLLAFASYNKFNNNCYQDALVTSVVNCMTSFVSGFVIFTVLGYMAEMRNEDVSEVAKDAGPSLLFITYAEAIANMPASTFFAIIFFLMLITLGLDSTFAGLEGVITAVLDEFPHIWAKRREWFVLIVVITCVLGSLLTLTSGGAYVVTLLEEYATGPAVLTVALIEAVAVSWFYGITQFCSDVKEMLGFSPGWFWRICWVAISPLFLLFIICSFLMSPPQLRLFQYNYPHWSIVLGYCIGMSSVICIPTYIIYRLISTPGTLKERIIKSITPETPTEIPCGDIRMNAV

**Q.** With `CN(C)C(c1cccc(F)c1)C1CCC(NC(=O)COCCN2CCN(S(=O)(=O)c3ccccc3)CC2)CC1` (centres unmarked) [Example 364] as the compound, how does the “5-HT (inhibition of reuptake of serotonin, % inhibition)” value read?
**A.** 95%

**Q.** With `COc1cc(C)c(S(=O)(=O)N2CCC(OCC(=O)NCCC3CCC(C(c4ccc(Cl)cc4)N(C)C)CC3)C2)c(C)c1C` (centres unmarked) [Example 412] as the compound, how does the “5-HT (inhibition of reuptake of serotonin, % inhibition)” value read?
**A.** 95%

**Q.** `CN(C)C(c1ccc(F)cc1)C1CCC(CNC(=O)COCCN(C)S(=O)(=O)c2ccc(Cl)cc2)CC1` (centres unmarked) [Example 399] was tested. Which “5-HT (inhibition of reuptake of serotonin, % inhibition)” value did it give?
**A.** 89%

**Q.** How did the “5-HT (inhibition of reuptake of serotonin, % inhibition)” value turn out when `COc1cc(C)c(S(=O)(=O)N2CCN(CCOCC(=O)NCCC3CCC(C(c4ccc(F)cc4)N(C)C)CC3)CC2)c(C)c1C` (centres unmarked) [Example 387] was run?
**A.** 95%

**Q.** How did the “5-HT (inhibition of reuptake of serotonin, % inhibition)” value turn out when `CN(C)C(c1ccc(Cl)cc1)C1CCC(CCNC(=O)COCC2CCCN(S(=O)(=O)c3ccccc3)C2)CC1` (centres unmarked) [Example 425] was run?
**A.** 97%

**Q.** How did the “5-HT (inhibition of reuptake of serotonin, % inhibition)” value turn out when `CN(C)C(c1ccc(F)cc1)C1CCC(CNC(=O)COC2CCN(S(=O)(=O)c3ccc(Cl)cc3Cl)C2)CC1` (centres unmarked) [Example 391] was run?
**A.** 85%

**Q.** For `CN(C)C(c1cccc(F)c1)C1CCC(CCNC(=O)COC2CCN(S(=O)(=O)c3ccccc3)C2)CC1` (centres unmarked) [Example 376], which “5-HT (inhibition of reuptake of serotonin, % inhibition)” value is on record?
**A.** 88%

**Q.** For `CN(C)C(c1ccc(F)cc1)C1CCC(CNC(=O)COC2CCN(S(=O)(=O)c3cccc(C(F)(F)F)c3)C2)CC1` (centres unmarked) [Example 402], which “5-HT (inhibition of reuptake of serotonin, % inhibition)” value is on record?
**A.** 77%

**Q.** How did the “5-HT (inhibition of reuptake of serotonin, % inhibition)” value turn out when `COc1ccc(S(=O)(=O)N2Cc3ccccc3CC2COCC(=O)NCCC2CCC(C(c3ccc(F)cc3)N(C)C)CC2)cc1` (centres unmarked) [Example 389] was run?
**A.** 93%

**Q.** Which “5-HT (inhibition of reuptake of serotonin, % inhibition)” value does the source give for `COc1ccc(S(=O)(=O)N2CCCCC2CCOCC(=O)NCCC2CCC(C(c3ccc(F)cc3)N(C)C)CC2)cc1` (centres unmarked) [Example 398] here?
**A.** 97%

**Q.** `COc1ccc(S(=O)(=O)N(C)CCOCC(=O)NCC2CCC(C(c3ccc(Cl)cc3)N(C)C)CC2)cc1OC` (centres unmarked) [Example 379] was tested. Which “5-HT (inhibition of reuptake of serotonin, % inhibition)” value did it give?
**A.** 81%

**Q.** With `COc1ccc(S(=O)(=O)N2CCC(OCC(=O)NCCC3CCC(C(c4ccc(F)cc4)N(C)C)CC3)C2)cc1OC` (centres unmarked) [Example 430] as the compound, how does the “5-HT (inhibition of reuptake of serotonin, % inhibition)” value read?
**A.** 92%

**Q.** How did the “5-HT (inhibition of reuptake of serotonin, % inhibition)” value turn out when `CN(C)C(c1ccc(F)cc1)C1CCC(CCNC(=O)COCCN(C)S(=O)(=O)c2ccc(OC(F)(F)F)cc2)CC1` (centres unmarked) [Example 446] was run?
**A.** 90%

**Q.** Which “5-HT (inhibition of reuptake of serotonin, % inhibition)” value does the source give for `CN(C)C(c1ccc(F)cc1)C1CCC(NC(=O)COCCN(C)S(=O)(=O)c2cccc(C(F)(F)F)c2)CC1` (centres unmarked) [Example 438] here?
**A.** 84%

**Q.** With `COc1cc(C)c(S(=O)(=O)N2CCC(OCC(=O)NCC3CCC(C(c4ccc(Cl)cc4)N(C)C)CC3)C2)c(C)c1` (centres unmarked) [Example 403] as the compound, how does the “5-HT (inhibition of reuptake of serotonin, % inhibition)” value read?
**A.** 93%

**Q.** Which “5-HT (inhibition of reuptake of serotonin, % inhibition)” value does the source give for `COc1cc(C)c(S(=O)(=O)N(CCOCC(=O)NC2CCC(C(c3cccc(F)c3)N(C)C)CC2)Cc2ccccc2)c(C)c1C` (centres unmarked) [Example 419] here?
**A.** 76%

**Q.** For `CN(C)C(c1cccc(F)c1)C1CCC(CCNC(=O)COC2CCN(S(=O)(=O)c3ccccc3)CC2)CC1` (centres unmarked) [Example 444], which “5-HT (inhibition of reuptake of serotonin, % inhibition)” value is on record?
**A.** 96%

**Q.** For `CN(C)C(c1ccc(F)cc1)C1CCC(NC(=O)COCCN(C)S(=O)(=O)c2ccc(Cl)cc2)CC1` (centres unmarked) [Example 406], which “5-HT (inhibition of reuptake of serotonin, % inhibition)” value is on record?
**A.** 93%

**Q.** `CCN(CCOCC(=O)NC1CCC(C(c2ccc(F)cc2)N(C)C)CC1)S(=O)(=O)c1c(C)cc(OC)c(C)c1C` (centres unmarked) [Example 396] was tested. Which “5-HT (inhibition of reuptake of serotonin, % inhibition)” value did it give?
**A.** 90%

**Q.** Which “5-HT (inhibition of reuptake of serotonin, % inhibition)” value does the source give for `COc1cc(C)c(S(=O)(=O)N(C)CCOCC(=O)NCCC2CCC(C(c3ccc(Cl)cc3)N(C)C)CC2)c(C)c1` (centres unmarked) [Example 378] here?
**A.** 83%

**Q.** For `CN(C)C(c1ccc(F)cc1)C1CCC(CCNC(=O)COCCN(C)S(=O)(=O)c2ccc(Cl)cc2)CC1` (centres unmarked) [Example 377], which “5-HT (inhibition of reuptake of serotonin, % inhibition)” value is on record?
**A.** 88%

**Q.** Which “5-HT (inhibition of reuptake of serotonin, % inhibition)” value does the source give for `CN(C)C(c1ccc(Cl)cc1)C1CCC(CNC(=O)COC2CCN(S(=O)(=O)c3ccc(Cl)cc3)C2)CC1` (centres unmarked) [Example 384] here?
**A.** 87%

**Q.** `COc1cc(C)c(S(=O)(=O)N2CCN(CCOCC(=O)NCC3CCC(C(c4ccc(Cl)cc4)N(C)C)CC3)CC2)c(C)c1C` (centres unmarked) [Example 429] was tested. Which “5-HT (inhibition of reuptake of serotonin, % inhibition)” value did it give?
**A.** 95%
